Measured values from patent US12139488B2, “Pyrido[3,2-d]pyrimidine compounds uses thereof for treating a proliferative disease” (Universite de Montreal, priority 2021, dated 2024).

Columns and labels:
CRAF = CRAF (Homo sapiens, UniProt P04049); test: CRAF kinase activity assay (ADP-Glo); format: biochemical; conditions: read-out: Kinase IC50 (nM) CRAF
In short: (§1)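 ADP-Glo luminescence assay of BRAF and CRAF kinase reactions with MEK1 substrate and ATP. Reactions ran 2 h at 30 °C with compound over nine concentrations from 100 nM to 0.01 nM, at 0.05% DMSO final. IC50 came from four-parameter variable-slope fits of % inhibition.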

BRAF = BRAF (Homo sapiens (Human), UniProt P15056); test: BRAF kinase activity assay (ADP-Glo); format: biochemical; conditions: read-out: Kinase IC50 (nM) BRAF
Chain of BRAF (P15056 whole entry): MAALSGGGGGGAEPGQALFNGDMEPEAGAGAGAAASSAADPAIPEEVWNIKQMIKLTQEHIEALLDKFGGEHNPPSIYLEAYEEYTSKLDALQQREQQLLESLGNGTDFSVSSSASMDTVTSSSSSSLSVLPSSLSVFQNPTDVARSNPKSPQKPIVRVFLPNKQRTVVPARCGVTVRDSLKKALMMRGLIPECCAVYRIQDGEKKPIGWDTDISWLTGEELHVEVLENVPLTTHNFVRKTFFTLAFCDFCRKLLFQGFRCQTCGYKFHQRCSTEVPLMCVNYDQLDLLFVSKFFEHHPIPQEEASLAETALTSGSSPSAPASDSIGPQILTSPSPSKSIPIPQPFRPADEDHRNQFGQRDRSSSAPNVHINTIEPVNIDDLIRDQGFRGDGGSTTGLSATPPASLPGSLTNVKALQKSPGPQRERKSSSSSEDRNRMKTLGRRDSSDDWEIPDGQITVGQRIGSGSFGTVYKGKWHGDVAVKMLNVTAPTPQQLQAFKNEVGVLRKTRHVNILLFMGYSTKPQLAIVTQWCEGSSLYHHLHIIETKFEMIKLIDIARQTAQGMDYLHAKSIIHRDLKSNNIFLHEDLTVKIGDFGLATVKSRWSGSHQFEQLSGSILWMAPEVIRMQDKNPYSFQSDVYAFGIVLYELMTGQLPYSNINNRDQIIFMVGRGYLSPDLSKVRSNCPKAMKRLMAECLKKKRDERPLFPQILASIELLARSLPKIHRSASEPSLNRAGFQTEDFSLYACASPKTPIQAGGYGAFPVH
In short: as §1

Chain of CRAF (P04049 whole entry, looked up): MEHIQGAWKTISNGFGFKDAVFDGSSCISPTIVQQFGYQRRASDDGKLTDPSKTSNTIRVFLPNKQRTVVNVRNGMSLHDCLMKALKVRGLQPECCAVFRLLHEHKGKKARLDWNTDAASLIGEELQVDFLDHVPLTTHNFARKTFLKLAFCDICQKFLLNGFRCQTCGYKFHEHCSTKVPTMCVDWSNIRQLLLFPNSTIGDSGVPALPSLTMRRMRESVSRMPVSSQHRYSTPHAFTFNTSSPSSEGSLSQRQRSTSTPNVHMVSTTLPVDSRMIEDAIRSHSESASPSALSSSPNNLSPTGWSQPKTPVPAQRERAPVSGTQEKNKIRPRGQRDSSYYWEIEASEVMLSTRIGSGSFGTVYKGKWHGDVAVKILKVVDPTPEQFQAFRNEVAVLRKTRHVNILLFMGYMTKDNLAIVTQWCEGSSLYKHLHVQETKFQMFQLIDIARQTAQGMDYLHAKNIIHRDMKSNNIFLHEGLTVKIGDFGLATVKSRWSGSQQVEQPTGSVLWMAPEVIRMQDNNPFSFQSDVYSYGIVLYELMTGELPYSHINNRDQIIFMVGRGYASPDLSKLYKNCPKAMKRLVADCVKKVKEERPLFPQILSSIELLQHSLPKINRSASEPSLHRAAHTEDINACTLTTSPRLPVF

- IC50 (CRAF): < 10 nM
- IC50 (BRAF): < 1 nM
SMILES: Nc1cccc2c1ncn2-c1ccc2ncnc(Nc3c(F)ccc(NS(=O)(=O)c4cccc(Cl)c4Cl)c3F)c2n1 [Example 99]
